For one experiment, the target named is T1, GST tagged PIP4KtypeIIA (Homo sapiens, UniProt P48426).
T1 construct: made in house; host or cells: E. coli
T1 sequence (P48426 1-406): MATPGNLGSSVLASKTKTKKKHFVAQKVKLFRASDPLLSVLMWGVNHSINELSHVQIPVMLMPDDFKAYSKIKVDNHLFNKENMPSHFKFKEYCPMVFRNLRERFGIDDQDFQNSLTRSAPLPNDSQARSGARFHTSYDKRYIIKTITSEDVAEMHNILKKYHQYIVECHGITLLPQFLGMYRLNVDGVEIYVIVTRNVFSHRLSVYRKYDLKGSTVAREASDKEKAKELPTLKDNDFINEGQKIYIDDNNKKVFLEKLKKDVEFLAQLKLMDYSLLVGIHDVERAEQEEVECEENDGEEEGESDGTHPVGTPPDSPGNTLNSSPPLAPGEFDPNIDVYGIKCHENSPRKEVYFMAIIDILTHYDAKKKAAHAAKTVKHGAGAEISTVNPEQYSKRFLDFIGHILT
Nature of the experiment: ADP-glo kinase assay PIP4K 2A (PIP4KtypeIIA inhibition assay). It counts as biochemical. The conditions noted are these: Table 3; compounds listed under IC50 range headings; 10 uM ATP, 0.5 nM PIP4KIIA. The source says:
GST tagged PIP4KtypeIIA and B enzymes were overexpressed in E. Coli and purified to >80% homogeneity. Phosphatidyl inositol-5-phosphate (PI5P, Cat. #850152, Avanti Polar Lipids Inc.) was used as the lipid substrate and phosphatidyl ethanolamine (DOPE 18:1, Cat. #850725, Avanti Polar Lipids Inc.) was used as the carrier lipid for assays. Ultrapure ATP and GTP was purchased from Bellbrooke Labs. ADP Glo reagents were obtained from Promega. Transcreener FI reagent was obtained from Bellbrooke labs.
1. HEPES buffer mix: 200 mM HEPES pH 7.4, 50 mM MgCl2, 0.05% v/v triton×100
2. HNE buffer: 20 mM HEPES, pH 7.4, 100 mM NaCl, 0.5 mM EGTA
3. H:E buffer: 30 mM HEPES, pH 7.4, 1 mM EGTA
Enzyme preparation: GST-tagged PIP4KtypeIIA (5 uL, 1.43 mg/mL) was diluted (1:10) to 50 uL using HNE buffer. From the 1:10 diluted stock, a 6.4 uL aliquot was diluted further to 5 mL using HNE buffer to yield 5× enzyme stock (2.5 nM).
Lipid Preparation: In a 10 mL pyrex glass vial, lug of PI5P and lug of DOPE were suspended in 2.5 mL of HEPES buffer mix and 2.5 mL of H:E buffer. The contents were mixed and sonicated for 3 min to yield a translucent lipid stock.
Compound Preparation: Compounds were stored as 5 mM stocks in neat DMSO as room temperature in glass vials. 5 mM stocks were diluted to 2 mM and then serially diluted (3×) in neat DMSO in 96 well polypropylene plates. From the serially diluted stocks, 3 uL was delivered into 250 uL of 25% DMSO (in water) to generate 5× compound stocks. Typically, the highest compound conc. was 24 uM.
The assay volume was kept at 25 uL. To each well of the reaction plate, 10 uL of lipid stock (1:1 ratio PI5P:DOPE) was delivered. This was followed by the addition of 5 uL of compound in 25% DMSO. Then, to each well, 5 uL of 2.5 nM (5×) typeIIA enzyme was delivered. The contents were mixed well and incubated for 1 h at 27 C. After 1 h, reaction was initiated by adding 5 uL of 50 uM ATP and the contents were mixed well with a multi-channel pipetteman. The final concentration of the reagents are as follows: 50 mM HEPES, pH 7.3, 10 mM MgCl2, 20 mM NaCl, 0.01% v/v triton-X100, 5% DMSO, 10 uM ATP, 80 uM (2 ug) PI5P, 2 ug DOPE, and 0.5 nM PIP4KIIA. Typically, the highest conc. of compounds was 4.8 uM and the lowest conc. was 0.
After 1 hr, the reaction was quenched by adding 25 uL of ADP Glo reagent. The contents were incubated for 1 hr. Afterwards, 50 uL of kinase detection reagent was delivered. The contents were incubated for another hour. The luminescence was read using Molecular Devices Paradigm plate reader. […] The blanks were averaged and subtracted from all other wells. Using a calibration curve, RLU was converted to uM ADP (product). IC50 was calculated by plotting the residual activity (expressed as % No inhibitor control) vs. log [Inh. conc.]
On the technique in general: In ADP-Glo the light output rises with the ADP produced.

The target in the next experiment is T2, GST tagged PIP4KtypeIIB (Homo sapiens, UniProt P78356).
T2 construct: made in house; host or cells: E. coli
T2 sequence (P78356 1-416): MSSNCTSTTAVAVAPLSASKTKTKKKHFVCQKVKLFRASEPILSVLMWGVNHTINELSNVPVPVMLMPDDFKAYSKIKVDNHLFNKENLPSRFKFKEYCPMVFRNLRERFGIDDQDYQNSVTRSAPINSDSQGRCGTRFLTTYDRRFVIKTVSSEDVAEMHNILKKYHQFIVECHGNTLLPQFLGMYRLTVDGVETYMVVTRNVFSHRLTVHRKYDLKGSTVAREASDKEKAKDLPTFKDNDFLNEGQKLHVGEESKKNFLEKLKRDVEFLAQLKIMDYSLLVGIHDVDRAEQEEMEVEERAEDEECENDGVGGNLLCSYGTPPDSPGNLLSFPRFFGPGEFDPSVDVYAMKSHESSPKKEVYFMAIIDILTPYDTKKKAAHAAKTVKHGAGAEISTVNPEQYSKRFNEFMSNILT
Nature of the experiment: Trans-FI P kinase assay PIP4K2B (PIP4KtypeIIB inhibition assay). The following applies: Table 4; compounds listed under IC50 range headings; 100 uM GTP, 5 nM PIP4KIIB; read-out: Trans-FI P kinase assays: PIP4K2B IC50. It counts as biochemical. In outline:
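Transcreener FI fluorescence, converted to GDP by calibration, tracked product from 5 nM E. coli-expressed GST-PIP4KIIB acting on 80 uM PI5P (DOPE carrier) with 100 uM GTP. Compound (top 4.8 uM final, 5% DMSO) was preincubated 1 h at 27 C before the 2 h reaction; IC50 fitted from residual activity.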

The text below walks through data of patent US11919902B2, “Aryl-bipyridine amine derivatives as phosphatidylinositol phosphate kinase inhibitors” (HiberCell, Inc., priority 2017, dated 2024).

Where “and” joins values, the source holds several entries; their conditions need not be identical. Equal entries are not always repeated.

As a reminder, the IC50 is the concentration needed to halve the response being measured.

In the case of `CN(C)C(=O)c1ccc(-c2cc(-c3ccnc4[nH]c(C(=O)NC5CCNC5=O)cc34)cnc2N)nc1` (centres unmarked) [Example 149, 4-(2′-amino-5-(dimethylcarbamoyl)-[2,3′-bipyridin]-5′-yl)-N-(2-oxopyrrolidin-3-yl)-1H-pyrrolo[2,3-b]pyridine-2-carboxamide], the IC50 against GST tagged PIP4KtypeIIA is 1000 to 2500 nM; on GST tagged PIP4KtypeIIB, 10 to 100 nM.

Consider `CN(C)C(=O)c1ccc(-c2cc(-c3ccnc4[nH]c(C(=O)NCCc5ncc[nH]5)cc34)cnc2N)nc1` [Example 150, N-(2-(1H-imidazol-2-yl)ethyl)-4-(2′-amino-5-(dimethylcarbamoyl)-[2,3′-bipyridin]-5′-yl)-1H-pyrrolo[2,3-b]pyridine-2-carboxamide], for which the results for the IC50 at GST tagged PIP4KtypeIIA and at GST tagged PIP4KtypeIIB were 100 to 1000 nM and 10 to 100 nM, respectively.

Turning to `CCc1ccc2c(c1)N(c1ccc(-c3cncc(-c4ccnc5c4cc4n5CCN(C)C4=O)c3)cc1)C(=O)C2` [Example 151, 4-(5-(4-(6-ethyl-2-oxoindolin-1-yl)phenyl)pyridin-3-yl)-7-methyl-8,9-dihydropyrido[3′,2′:4,5]pyrrolo[1,2-a]pyrazin-6 (7H)-one], the IC50 against GST tagged PIP4KtypeIIA and on GST tagged PIP4KtypeIIB was over 5000 nM throughout.

`Cc1cc(N2CCCC2=O)ccc1-c1cncc(-c2cn(C)c3ncc(C(C)O)cc23)c1` (centres unmarked) [Example 197, 1-(4-(5-(5-(1-hydroxyethyl)-1-methyl-1H-pyrrolo[2,3-b]pyridin-3-yl)pyridin-3-yl)-3-methylphenyl)pyrrolidin-2-one]: the IC50 on GST tagged PIP4KtypeIIA and on GST tagged PIP4KtypeIIB was 100 to 1000 nM in each case.

For `C[C@@H]1CC(=O)N(c2ccc(-c3cncc(-c4ccnc5c4cc4n5CCN(C)C4=O)c3)cc2)C1` [Example 198, (R)-7-methyl-4-(5-(4-(4-methyl-2-oxopyrrolidin-1-yl)phenyl)pyridin-3-yl)-8,9-dihydropyrido[3′,2′:4,5]pyrrolo[1,2-a]pyrazin-6(7H)-one], the IC50 against GST tagged PIP4KtypeIIA lay in the range of 100 to 1000 nM; on GST tagged PIP4KtypeIIB, 10 to 100 nM.

Regarding `C[C@H]1CC(=O)N(c2ccc(-c3cncc(-c4ccnc5c4cc4n5CCN(C)C4=O)c3)cc2)C1` [Example 199, (S)-7-methyl-4-(5-(4-(4-methyl-2-oxopyrrolidin-1-yl)phenyl)pyridin-3-yl)-8,9-dihydropyrido[3′,2′:4,5]pyrrolo[1,2-a]pyrazin-6(7H)-one], the IC50 against GST tagged PIP4KtypeIIA was 100 to 1000 nM; on GST tagged PIP4KtypeIIB, 10 to 100 nM.

On to `CN1CCn2c(cc3c(-c4cncc(-c5ccc(N6CC(C)(C)CC6=O)cc5)c4)ccnc32)C1=O` [Example 200, 4-(5-(4-(4,4-dimethyl-2-oxopyrrolidin-1-yl)phenyl)pyridin-3-yl)-7-methyl-8,9-dihydropyrido[3′,2′:4,5]pyrrolo[1,2-a]pyrazin-6(7H)-one], for which the IC50 against GST tagged PIP4KtypeIIA lay within 100 to 1000 nM; on GST tagged PIP4KtypeIIB, 10 to 100 nM.

Take `CN1CCn2c(cc3c(-c4cncc(-c5ccc(N6CC7(CC7)CC6=O)cc5)c4)ccnc32)C1=O` [Example 201, 7-methyl-4-(5-(4-(6-oxo-5-azaspiro[2.4]heptan-5-yl)phenyl)pyridin-3-yl)-8,9-dihydropyrido[3′,2′:4,5]pyrrolo[1,2-a]pyrazin-6(7H)-one]: the IC50 against GST tagged PIP4KtypeIIA lay within 100 to 1000 nM; on GST tagged PIP4KtypeIIB, 10 to 100 nM.

In the case of `CN1CCn2c(cc3c(-c4cncc(-c5ccc(N6C(=O)Cc7ccccc76)cc5)c4)ccnc32)C1=O` [Example 202, 7-methyl-4-(5-(4-(2-oxoindolin-1-yl)phenyl)pyridin-3-yl)-8,9-dihydropyrido[3′,2′:4,5]pyrrolo[1,2-a]pyrazin-6(7H)-one], the IC50 against GST tagged PIP4KtypeIIA and at GST tagged PIP4KtypeIIB was over 5000 nM throughout.

Consider `O=C(Nc1ccc(-c2cncc(-c3ccnc4[nH]ncc34)c2)cc1)C(=O)N1CC2CCC1C2` (centres unmarked) [Example 203, N-(4-(5-(1H-pyrazolo[3,4-b]pyridin-4-yl)pyridin-3-yl)phenyl)-2-(2-azabicyclo[2.2.1]heptan-2-yl)-2-oxoacetamide], for which the IC50 at GST tagged PIP4KtypeIIA fell in the range of 100 to 1000 nM; on GST tagged PIP4KtypeIIB it was 2500 to 5000 nM.

In the case of `O=C(Nc1ccc(-c2cncc(-c3ccnc4[nH]ncc34)c2)cc1)C(=O)N1C2CCC1CC2` [Example 204, N-(4-(5-(1H-pyrazolo[3,4-b]pyridin-4-yl)pyridin-3-yl)phenyl)-2-(7-azabicyclo[2.2.1]heptan-7-yl)-2-oxoacetamide], the IC50 was 100 to 1000 nM against GST tagged PIP4KtypeIIA and over 5000 nM at GST tagged PIP4KtypeIIB.

As to `O=C(Nc1ccc(-c2cncc(-c3ccnc4[nH]ncc34)c2)cc1)c1cc(C2CCC2)on1` [Example 205, N-(4-(5-(1H-pyrazolo[3,4-b]pyridin-4-yl)pyridin-3-yl)phenyl)-5-cyclobutylisoxazole-3-carboxamide], the 50% inhibitory concentration (IC50) against GST tagged PIP4KtypeIIA is over 5000 nM; at GST tagged PIP4KtypeIIB it was 100 to 1000 nM and > 5000 nM.

As for `CN(C(=O)c1ccc(-c2cncc(-c3ccnc4[nH]ncc34)c2)cc1)c1cccc(-n2ccnn2)c1` [Example 206, N-(3-(1H-1,2,3-triazol-1-yl)phenyl)-4-(5-(1H-pyrazolo[3,4-b]pyridin-4-yl)pyridin-3-yl)-N-methylbenzamide], the IC50 against GST tagged PIP4KtypeIIA and at GST tagged PIP4KtypeIIB was over 5000 nM throughout.

As to `O=C1CCCN1c1ccc(-c2cncc(-c3ccnc4c3cc3n4CCN(c4ccccn4)C3=O)c2)cc1` [Example 207, 4-(5-(4-(2-oxopyrrolidin-1-yl)phenyl)pyridin-3-yl)-7-(pyridin-2-yl)-8,9-dihydropyrido[3′,2′:4,5]pyrrolo[1,2-a]pyrazin-6(7H)-one], the IC50 against GST tagged PIP4KtypeIIA and on GST tagged PIP4KtypeIIB was 10 to 100 nM in each case.

With `Cc1cccc2c1CC(=O)N2c1ccc(-c2cncc(-c3ccnc4c3cc3n4CCN(C)C3=O)c2)cc1` [Example 208, 7-methyl-4-(5-(4-(4-methyl-2-oxoindolin-1-yl)phenyl)pyridin-3-yl)-8,9-dihydropyrido[3′,2′:4,5]pyrrolo[1,2-a]pyrazin-6(7H)-one], the IC50 against GST tagged PIP4KtypeIIA and at GST tagged PIP4KtypeIIB was over 5000 nM throughout.

`CCc1cccc2c1CC(=O)N2c1ccc(-c2cncc(-c3ccnc4c3cc3n4CCN(C)C3=O)c2)cc1` [Example 209, 4-(5-(4-(4-ethyl-2-oxoindolin-1-yl)phenyl)pyridin-3-yl)-7-methyl-8,9-dihydropyrido[3′,2′:4,5]pyrrolo[1,2-a]pyrazin-6(7H)-one]: the results for the IC50 on GST tagged PIP4KtypeIIA and on GST tagged PIP4KtypeIIB were over 5000 nM and 1000 to 2500 nM, respectively.
